14 molecules from ChEMBL document CHEMBL5291721, “A preclinical secondary pharmacology resource illuminates target-adverse drug reaction associations of marketed drugs” (Nat Commun, 2023) can be followed below.

For one assay, the target named is T1, Adenosine receptor A1 (Homo sapiens, UniProt P30542).
T1 sequence (P30542 whole entry): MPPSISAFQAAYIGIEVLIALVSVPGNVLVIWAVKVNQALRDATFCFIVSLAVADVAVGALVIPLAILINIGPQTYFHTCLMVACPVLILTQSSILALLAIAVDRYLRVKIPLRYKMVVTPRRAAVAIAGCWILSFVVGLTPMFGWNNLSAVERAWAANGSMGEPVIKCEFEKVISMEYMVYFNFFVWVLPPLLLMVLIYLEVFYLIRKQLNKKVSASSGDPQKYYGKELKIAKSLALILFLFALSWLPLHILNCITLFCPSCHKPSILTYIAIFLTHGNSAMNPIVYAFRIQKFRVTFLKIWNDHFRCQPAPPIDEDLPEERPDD

Assay [1] addresses T2, Alpha-2A adrenergic receptor (Homo sapiens, UniProt P08913).
T2 sequence (P08913 whole entry): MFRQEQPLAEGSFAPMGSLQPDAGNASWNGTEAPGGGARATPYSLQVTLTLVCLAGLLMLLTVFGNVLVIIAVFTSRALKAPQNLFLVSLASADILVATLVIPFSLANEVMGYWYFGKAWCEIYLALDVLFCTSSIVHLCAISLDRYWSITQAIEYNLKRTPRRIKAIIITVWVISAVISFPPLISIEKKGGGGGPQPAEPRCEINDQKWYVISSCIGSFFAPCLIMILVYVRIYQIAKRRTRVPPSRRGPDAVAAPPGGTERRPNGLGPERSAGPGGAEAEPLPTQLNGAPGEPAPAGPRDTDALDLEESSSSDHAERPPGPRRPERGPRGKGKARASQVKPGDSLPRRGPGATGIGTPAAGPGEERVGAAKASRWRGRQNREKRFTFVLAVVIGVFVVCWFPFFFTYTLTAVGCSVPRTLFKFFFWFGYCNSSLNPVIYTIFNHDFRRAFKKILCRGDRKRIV
The assay is classed as functional, cell-based.

Assay [2] has as its target Beta-2 adrenergic receptor (Homo sapiens, UniProt P07550).
Assay [3] has as its target T3, Type-1 angiotensin II receptor (Homo sapiens, UniProt P30556).
T3 sequence (P30556 whole entry): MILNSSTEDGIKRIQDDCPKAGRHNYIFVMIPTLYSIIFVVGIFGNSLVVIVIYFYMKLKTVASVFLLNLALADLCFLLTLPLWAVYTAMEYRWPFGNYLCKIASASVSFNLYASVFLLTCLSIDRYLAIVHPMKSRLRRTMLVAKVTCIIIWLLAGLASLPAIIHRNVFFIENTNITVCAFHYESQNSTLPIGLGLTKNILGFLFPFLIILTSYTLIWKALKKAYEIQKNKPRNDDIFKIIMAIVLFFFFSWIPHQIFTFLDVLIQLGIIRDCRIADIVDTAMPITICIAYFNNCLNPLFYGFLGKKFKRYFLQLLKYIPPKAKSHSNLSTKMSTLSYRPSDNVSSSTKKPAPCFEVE

Assay [4] addresses T4, Muscarinic acetylcholine receptor M2 (Homo sapiens, UniProt P08172).
T4 sequence (P08172 whole entry): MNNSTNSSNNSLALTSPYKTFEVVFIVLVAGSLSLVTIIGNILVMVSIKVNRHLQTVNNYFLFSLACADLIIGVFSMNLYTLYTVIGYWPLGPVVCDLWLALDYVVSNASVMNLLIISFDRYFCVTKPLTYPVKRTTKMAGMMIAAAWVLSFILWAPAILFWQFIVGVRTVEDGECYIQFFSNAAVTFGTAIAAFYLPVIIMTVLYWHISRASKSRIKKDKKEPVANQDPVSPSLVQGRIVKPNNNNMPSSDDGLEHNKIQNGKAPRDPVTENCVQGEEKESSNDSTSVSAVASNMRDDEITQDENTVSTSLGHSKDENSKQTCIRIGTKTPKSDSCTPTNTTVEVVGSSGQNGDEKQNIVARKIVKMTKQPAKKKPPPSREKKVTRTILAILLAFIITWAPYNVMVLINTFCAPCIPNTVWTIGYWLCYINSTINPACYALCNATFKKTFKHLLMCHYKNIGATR
The assay is classed as functional, cell-based.

Assay [5] addresses 5-hydroxytryptamine receptor 2B (Homo sapiens, UniProt P41595). The assay is classed as functional, cell-based.
In another assay the target is T5, Glucocorticoid receptor (Homo sapiens, UniProt P04150).
T5 sequence (P04150 whole entry): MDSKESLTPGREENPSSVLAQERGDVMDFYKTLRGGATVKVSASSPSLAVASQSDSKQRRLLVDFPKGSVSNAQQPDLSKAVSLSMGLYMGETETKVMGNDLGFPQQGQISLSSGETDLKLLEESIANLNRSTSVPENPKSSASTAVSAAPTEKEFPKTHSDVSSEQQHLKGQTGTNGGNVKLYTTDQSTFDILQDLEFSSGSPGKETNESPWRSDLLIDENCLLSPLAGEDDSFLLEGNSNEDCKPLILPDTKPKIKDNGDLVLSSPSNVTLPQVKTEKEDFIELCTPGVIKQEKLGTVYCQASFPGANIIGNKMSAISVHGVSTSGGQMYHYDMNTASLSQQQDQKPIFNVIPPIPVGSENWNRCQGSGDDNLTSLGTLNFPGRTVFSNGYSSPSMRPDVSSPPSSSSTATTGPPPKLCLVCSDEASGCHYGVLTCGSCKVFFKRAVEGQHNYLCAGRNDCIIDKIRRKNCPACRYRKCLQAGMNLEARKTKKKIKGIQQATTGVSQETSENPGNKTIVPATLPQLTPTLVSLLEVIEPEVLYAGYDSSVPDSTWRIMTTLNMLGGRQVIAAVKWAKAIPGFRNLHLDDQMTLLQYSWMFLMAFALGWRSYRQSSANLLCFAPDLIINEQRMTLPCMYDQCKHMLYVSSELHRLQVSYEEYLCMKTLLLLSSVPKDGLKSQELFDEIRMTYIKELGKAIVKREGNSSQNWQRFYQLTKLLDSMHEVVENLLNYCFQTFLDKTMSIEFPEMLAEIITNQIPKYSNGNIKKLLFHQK

In assay [6] the target is Sodium-dependent dopamine transporter (Homo sapiens, UniProt Q01959).
Further: assay procedure not described here.

Chain of Beta-2 adrenergic receptor (P07550 whole entry): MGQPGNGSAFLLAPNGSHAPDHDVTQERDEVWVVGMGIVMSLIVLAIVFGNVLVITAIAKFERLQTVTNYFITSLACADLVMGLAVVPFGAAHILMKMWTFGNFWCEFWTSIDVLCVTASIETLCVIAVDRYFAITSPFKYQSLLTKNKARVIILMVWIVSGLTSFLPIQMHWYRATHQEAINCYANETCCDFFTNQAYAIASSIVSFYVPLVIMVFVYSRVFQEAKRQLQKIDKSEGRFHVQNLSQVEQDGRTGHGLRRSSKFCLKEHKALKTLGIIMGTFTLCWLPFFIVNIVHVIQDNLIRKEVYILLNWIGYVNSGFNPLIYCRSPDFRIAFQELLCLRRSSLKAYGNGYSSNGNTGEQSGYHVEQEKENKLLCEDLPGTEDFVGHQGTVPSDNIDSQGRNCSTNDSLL
Chain of Sodium-dependent dopamine transporter (Q01959 whole entry): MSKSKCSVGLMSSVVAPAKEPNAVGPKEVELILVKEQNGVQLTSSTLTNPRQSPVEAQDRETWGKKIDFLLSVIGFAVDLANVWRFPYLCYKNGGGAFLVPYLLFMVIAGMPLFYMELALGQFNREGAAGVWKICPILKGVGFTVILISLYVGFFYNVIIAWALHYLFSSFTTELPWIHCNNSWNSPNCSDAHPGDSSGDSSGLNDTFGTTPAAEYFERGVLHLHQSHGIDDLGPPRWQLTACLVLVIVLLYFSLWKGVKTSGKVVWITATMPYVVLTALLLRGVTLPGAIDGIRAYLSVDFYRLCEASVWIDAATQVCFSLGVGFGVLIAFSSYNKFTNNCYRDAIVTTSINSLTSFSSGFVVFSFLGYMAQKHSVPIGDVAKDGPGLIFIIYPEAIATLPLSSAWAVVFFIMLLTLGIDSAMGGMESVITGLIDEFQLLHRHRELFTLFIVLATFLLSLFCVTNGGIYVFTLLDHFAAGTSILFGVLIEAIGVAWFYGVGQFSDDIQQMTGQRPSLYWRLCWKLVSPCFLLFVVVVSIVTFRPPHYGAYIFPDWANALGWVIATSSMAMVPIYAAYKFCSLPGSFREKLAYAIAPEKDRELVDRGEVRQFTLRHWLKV
Chain of 5-hydroxytryptamine receptor 2B (P41595 whole entry): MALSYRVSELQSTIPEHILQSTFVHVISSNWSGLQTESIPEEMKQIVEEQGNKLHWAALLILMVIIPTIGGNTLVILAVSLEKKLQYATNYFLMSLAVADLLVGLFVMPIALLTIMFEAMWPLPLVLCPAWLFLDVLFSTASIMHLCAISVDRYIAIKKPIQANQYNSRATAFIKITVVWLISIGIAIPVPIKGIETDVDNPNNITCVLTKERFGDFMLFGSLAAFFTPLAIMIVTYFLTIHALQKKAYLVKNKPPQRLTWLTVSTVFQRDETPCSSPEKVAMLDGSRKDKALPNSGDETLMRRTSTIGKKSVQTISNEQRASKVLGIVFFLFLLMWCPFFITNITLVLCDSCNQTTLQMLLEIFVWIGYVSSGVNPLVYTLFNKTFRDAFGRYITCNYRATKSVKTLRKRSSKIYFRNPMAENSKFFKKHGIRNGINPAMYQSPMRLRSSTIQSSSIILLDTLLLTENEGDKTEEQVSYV

A word on the AC50: it is the concentration giving half of the maximal activity seen. For the molecule `CO[C@@H]1[C@@H](O[C@@H]2O[C@H](C)[C@@H](O[C@H]3C[C@@](C)(O)[C@@H](OC(=O)CC(C)C)[C@H](C)O3)[C@H](N(C)C)[C@H]2O)[C@@H](CC=O)C[C@@H](C)[C@@H](O)/C=C/C=C/C[C@@H](C)OC(=O)C[C@H]1OC(C)=O` [JOSAMYCIN], the AC50 (on Adenosine receptor A1; in assay [1]; in assay [2]; in assay [3]; in assay [4]; in assay [5]) was above 10 µM in each case. The AC50 (at Glucocorticoid receptor; in assay [6]) was above 10 µM throughout.

Consider `CCCC(=O)O[C@]1(C(=O)CO)CC[C@H]2[C@@H]3CCC4=CC(=O)CC[C@]4(C)[C@H]3[C@@H](O)C[C@@]21C` [HYDROCORTISONE BUTYRATE], for which the AC50 (at Adenosine receptor A1; in assay [1]; in assay [2]; in assay [3]; in assay [4]; in assay [5]) was above 10 µM in each case. The values for the AC50 (on Glucocorticoid receptor; in assay [6]) were 0.008 µM and above 10 µM, respectively.

In the case of `COC(=O)C1=C(C)NC(C)=C(C(=O)OC(C)(C)CN(C)CCC(c2ccccc2)c2ccccc2)C1c1cccc([N+](=O)[O-])c1` (configuration not stated) [LERCANIDIPINE], the AC50 (at Adenosine receptor A1; in assay [1]; in assay [2]; in assay [3]; in assay [4]; in assay [5]) was above 30 µM throughout. For the same molecule, the AC50 on Glucocorticoid receptor was above 30 µM; in assay [6], 35.7 µM.

Take `CC(C)=CCC/C(C)=C/C=C/C(C)=C/C=C/C(C)=C/C=C/C=C(C)/C=C/C=C(C)/C=C/C=C(\C)CCC=C(C)C` [LYCOPENE]: the AC50 (at Adenosine receptor A1; in assay [1]; in assay [2]; in assay [3]; in assay [4]; in assay [5]) was above 30 µM each time. Further, the AC50 (at Glucocorticoid receptor; in assay [6]) was above 30 µM in each case.

Consider `O=C(O)C1=C(CSc2nnnn2CS(=O)(=O)O)CS[C@@H]2[C@H](NC(=O)[C@H](O)c3ccccc3)C(=O)N12` [CEFONICID], for which the AC50 (on Adenosine receptor A1; in assay [1]; in assay [2]; in assay [3]; in assay [4]; in assay [5]) was above 30 µM each time. The AC50 (at Glucocorticoid receptor; in assay [6]) was above 30 µM throughout.

On to `C[C@]12CC[C@H]3[C@@H](CCC4=CC(=O)CC[C@@]43C)[C@@H]1CC[C@@H]2O` [TESTOSTERONE], for which the AC50 (at Adenosine receptor A1; in assay [1]; in assay [2]; in assay [3]; in assay [4]; in assay [5]) was above 10 µM each time. Moreover, the AC50 on Glucocorticoid receptor is 0.246 µM; in assay [6], above 10 µM.

For `CC(C(=O)O)c1ccc(N2Cc3ccccc3C2=O)cc1` (configuration not stated) [INDOPROFEN], the AC50 (at Adenosine receptor A1; in assay [1]; in assay [2]; in assay [3]; in assay [4]; in assay [5]) was above 30 µM each time. The AC50 (on Glucocorticoid receptor; in assay [6]) was above 30 µM throughout.

Regarding `CC(C)Cn1cnc2c(N)nc3ccccc3c21` [IMIQUIMOD], the AC50 on Adenosine receptor A1 was above 10 µM; in assay [1] it was above 10 µM; in assay [2], above 10 µM; in assay [3], above 10 µM; in assay [4], above 10 µM; in assay [5] it was 13.8 µM. The values for the AC50 (on Glucocorticoid receptor; in assay [6]) were above 10 µM and above 30 µM, respectively.

On to `O=C(O)C[C@H](O)C[C@H](O)/C=C/c1c(C2CC2)nc2ccccc2c1-c1ccc(F)cc1` [PITAVASTATIN], for which the AC50 at Adenosine receptor A1 was above 10 µM; in assay [1], above 10 µM; in assay [2], above 10 µM; in assay [3] it was above 30 µM; in assay [4], above 30 µM; in assay [5] it was above 10 µM. In addition, the AC50 on Glucocorticoid receptor is above 10 µM; in assay [6] it was above 30 µM.

Turning to `O=C(O)[C@H](CC(=O)N1C[C@H]2CCCC[C@H]2C1)Cc1ccccc1` [MITIGLINIDE], the half-maximal activity concentration (AC50) (at Adenosine receptor A1; in assay [1]; in assay [2]; in assay [3]; in assay [4]; in assay [5]) was above 10 µM in each case. The AC50 (at Glucocorticoid receptor; in assay [6]) was above 10 µM in each case.

With `C[C@H](N)[C@H](O)c1cccc(O)c1` [METARAMINOL], the AC50 on Adenosine receptor A1 is above 10 µM; in assay [1], above 10 µM; in assay [2], above 30 µM; in assay [3] it was above 10 µM; in assay [4] it was above 10 µM; in assay [5], 7.4 µM. The AC50 (at Glucocorticoid receptor; in assay [6]) was above 10 µM each time.

For `NCC[C@H](O)C(=O)N[C@@H]1C[C@H](N)[C@@H](O[C@H]2O[C@H](CN)[C@@H](O)[C@H](O)[C@H]2O)[C@H](O)[C@H]1O[C@H]1O[C@H](CO)[C@@H](O)[C@H](N)[C@H]1O` [AMIKACIN], the AC50 (on Adenosine receptor A1; in assay [1]; in assay [2]; in assay [3]; in assay [4]; in assay [5]) was above 10 µM in each case. The AC50 (on Glucocorticoid receptor; in assay [6]) was above 10 µM throughout.

`Nc1nc(/C(=C/CC(=O)O)C(=O)N[C@@H]2C(=O)N3C(C(=O)O)=CCS[C@H]23)cs1` [CEFTIBUTEN]: the concentration at half-maximal activity (AC50) (on Adenosine receptor A1; in assay [1]; in assay [2]; in assay [3]; in assay [4]; in assay [5]) was above 30 µM in each case. The AC50 (at Glucocorticoid receptor; in assay [6]) was above 30 µM each time.

Take `COC(=O)[C@H]1[C@H]2C[C@@H]3c4[nH]c5cc(OC)ccc5c4CCN3C[C@H]2C[C@@H](OC(=O)/C=C/c2cc(OC)c(OC)c(OC)c2)[C@@H]1OC` [RESCINNAMINE]: the AC50 was above 30 µM on Adenosine receptor A1; above 10 µM in assay [1]; above 10 µM in assay [2]; above 10 µM in assay [3]; above 10 µM in assay [4]; above 10 µM in assay [5]. Besides, the AC50 at Glucocorticoid receptor is above 10 µM; in assay [6], 18.9 µM.
